System: 817829-284-R-J1-PDC multi-cell spheroid viability
Experiment: Anticancer human tumor 817829-284-R-J1-PDC patient-derived colon adenocarcinoma cell line growth inhibition [PI3K]
Details: for IC50: curve of first compound; for viability, T/C: stronger effect = lower value
Summary of the method: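 We assembled tumor spheroids that included a stromal compartment of HUVEC and MSCs, then exposed them to targeted agents alone and together with PI3K pathway inhibitors. Concentration series descended by half-log from clinically achievable Cmax levels. Viability served as the endpoint.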

[1] = second compound 0.0316 µM, first compound 0.0316 µM
[2] = second compound 0.0316 µM, first compound 0.1 µM
[3] = second compound 0.0316 µM, first compound 0.316 µM
[4] = second compound 0.0316 µM, first compound 1 µM
[5] = second compound 0.0316 µM, first compound 3.16 µM
[6] = second compound 0.0316 µM, first compound 10 µM
[7] = second compound 0.1 µM, first compound 0.0316 µM
[8] = second compound 0.1 µM, first compound 0.1 µM
[9] = second compound 0.1 µM, first compound 0.316 µM
[10] = second compound 0.1 µM, first compound 1 µM
[11] = second compound 0.1 µM, first compound 3.16 µM
[12] = second compound 0.1 µM, first compound 10 µM
[13] = second compound 0.316 µM, first compound 0.0316 µM
[14] = second compound 0.316 µM, first compound 0.1 µM
[15] = second compound 0.316 µM, first compound 0.316 µM
[16] = second compound 0.316 µM, first compound 1 µM
[17] = second compound 0.316 µM, first compound 3.16 µM
[18] = second compound 0.316 µM, first compound 10 µM
[19] = second compound 1 µM, first compound 0.0316 µM
[20] = second compound 1 µM, first compound 0.1 µM
[21] = second compound 1 µM, first compound 0.316 µM
[22] = second compound 1 µM, first compound 1 µM
[23] = second compound 1 µM, first compound 3.16 µM
[24] = second compound 1 µM, first compound 10 µM
[25] = second compound 3.16 µM, first compound 0.0316 µM
[26] = second compound 3.16 µM, first compound 0.1 µM
[27] = second compound 3.16 µM, first compound 0.316 µM
[28] = second compound 3.16 µM, first compound 1 µM
[29] = second compound 3.16 µM, first compound 3.16 µM
[30] = second compound 3.16 µM, first compound 10 µM
[31] = second compound 10 µM, first compound 0.0316 µM
[32] = second compound 10 µM, first compound 0.1 µM
[33] = second compound 10 µM, first compound 0.316 µM
[34] = second compound 10 µM, first compound 1 µM
[35] = second compound 10 µM, first compound 3.16 µM
[36] = second compound 10 µM, first compound 10 µM
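Also: spheroids exposed to agents for seven days before readout.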
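For viability, T/C in this document: percent of vehicle DMSO control viability which is 100%.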

CC(C)NCC(C(=O)N1CCN(c2ncnc3c2C(C)CC3O)CC1)c1ccc(Cl)cc1 (centres undefined) + Cc1nc(NC(=O)N2CCCC2C(N)=O)sc1-c1ccnc(C(C)(C)C(F)(F)F)c1
IC50 (second compound 0.0316 µM): 0.249 µM
IC50 (second compound 0.1 µM): 0.193 µM
IC50 (second compound 0.316 µM): 0.203 µM
IC50 (second compound 1 µM): 0.165 µM
IC50 (second compound 3.16 µM): 0.0692 µM
IC50 (second compound 10 µM): 0.0388 µM
viability, T/C [1]: 80.1%
viability, T/C [2]: 62.1%
viability, T/C [3]: 51.1%
viability, T/C [4]: 21.8%
viability, T/C [5]: 19.6%
viability, T/C [6]: 13.5%
viability, T/C [7]: 82.5%
viability, T/C [8]: 72.9%
viability, T/C [9]: 32.4%
viability, T/C [10]: 21.5%
viability, T/C [11]: 19.4%
viability, T/C [12]: 13.1%
viability, T/C [13]: 55.5%
viability, T/C [14]: 107%
viability, T/C [15]: 30.5%
viability, T/C [16]: 24.4%
viability, T/C [17]: 17.3%
viability, T/C [18]: 11%
viability, T/C [19]: 69.3%
viability, T/C [20]: 66.3%
viability, T/C [21]: 29.6%
viability, T/C [22]: 23%
viability, T/C [23]: 16.6%
viability, T/C [24]: 8.39%
viability, T/C [25]: 69.3%
viability, T/C [26]: 40.2%
viability, T/C [27]: 23.9%
viability, T/C [28]: 19.2%
viability, T/C [29]: 15.3%
viability, T/C [30]: 6.49%
viability, T/C [31]: 52.8%
viability, T/C [32]: 39.5%
viability, T/C [33]: 29%
viability, T/C [34]: 24.6%
viability, T/C [35]: 12.5%
viability, T/C [36]: 6.18%

CC1(C)CCC(CN2CCN(c3ccc(C(=O)NS(=O)(=O)c4ccc(NCC5CCOCC5)c([N+](=O)[O-])c4)c(Oc4cnc5[nH]ccc5c4)c3)CC2)=C(c2ccc(Cl)cc2)C1 + Cc1nc(NC(=O)N2CCCC2C(N)=O)sc1-c1ccnc(C(C)(C)C(F)(F)F)c1
IC50 (second compound 0.0316 µM): 5.01 µM
IC50 (second compound 0.1 µM): 4.25 µM
IC50 (second compound 0.316 µM): 3.89 µM
IC50 (second compound 1 µM): 3.47 µM
IC50 (second compound 3.16 µM): 4.74 µM
IC50 (second compound 10 µM): 2.43 µM
viability, T/C [1]: 86.7%
viability, T/C [2]: 69.7%
viability, T/C [3]: 119%
viability, T/C [4]: 42.6%
viability, T/C [5]: 84.3%
viability, T/C [6]: 4.12%
viability, T/C [7]: 97.7%
viability, T/C [8]: 67.1%
viability, T/C [9]: 98.3%
viability, T/C [10]: 87.8%
viability, T/C [11]: 65.6%
viability, T/C [12]: 4.95%
viability, T/C [13]: 67.2%
viability, T/C [14]: 58.8%
viability, T/C [15]: 72.7%
viability, T/C [16]: 70.4%
viability, T/C [17]: 58.6%
viability, T/C [18]: 6.66%
viability, T/C [19]: 65.9%
viability, T/C [20]: 67.7%
viability, T/C [21]: 82.7%
viability, T/C [22]: 72.6%
viability, T/C [23]: 54.1%
viability, T/C [24]: 3.59%
viability, T/C [25]: 73.6%
viability, T/C [26]: 62.2%
viability, T/C [27]: 104%
viability, T/C [28]: 72.2%
viability, T/C [29]: 74.2%
viability, T/C [30]: 5.23%
viability, T/C [31]: 81.1%
viability, T/C [32]: 89.8%
viability, T/C [33]: 57.6%
viability, T/C [34]: 78.8%
viability, T/C [35]: 42%
viability, T/C [36]: 2.17%

— PubChem BioAssay AID1963969 (Molecular Pharmacology Branch, DTP, NCI, 2024)
